Tested on: 327498-153-R-J2-PDC complex spheroid growth, % test/control
Experiment: Anticancer human tumor 327498-153-R-J2-PDC patient-derived uterine carcinosarcoma cell line growth inhibition [Asc]
Settings: for IC50: curve of first compound; for viability, T/C: stronger effect = lower value
Description: Multicellular complex tumor spheroid response to apoptosis pathway targeting inhibitors Alrizomadlin, Pelcitoclax, and Dasminapant in combination with a variety of drugs and investigational agents in selected tumor cell lines
The MDM2 inhibitor alrizomadlin, the Bcl-2/Bcl-xL inhibitor pelcitoclax, and the IAPs inhibitor dasminapant were evaluated both individually and in combination with standard of care and investigational anticancer small molecules within a complex spheroid model of solid tumors. . Complex spheroids include a stromal component modeled by human endothelial cells (HUVEC) and fibroblasts modeled by human mesenchymal stem cells (MSCs). The concentration ranges selected for each drug and investigational agent were based upon clinically achievable concentrations if the clinical Cmax of the agent was known.
Compounds. The drugs and investigational agents: alrizomadlin (APG-115; NSC831270), pelcitoclax (APG-1252; NSC835773), dasminapant (APG-1387;NSC834197), TAK-243 (NSC785004), copanlisib (NSC809693), olaparib (NSC753686), talazoparib (NSC767125), cobimetinib (NSC 768068), eltanexor (KPT-8602, NSC 794443), abemaciclib (NSC 768073), sotorasib (NSC818433), adagrasib (NSC 831453), MRTX-1133 (NSC 836407), Iadademestat (ORY1001, NSC 806812), and RMC-4630 (NSC839698), were obtained from the NCI Developmental Therapeutics Program Chemical Repository. The FDA-approved anticancer drug set is available from the Developmental Therapeutics Program at https://dtp.cancer.gov/organization/dscb/obtaining/available plates.htm. […] The stock solutions were prepared in dimethyl sulfoxide (DMSO, Sigma-Aldrich, St. Louis, MO, cat. D2650) at 800-fold the tested concentration and stored at -70 degrees C prior to their use. All drugs and investigational agents were tested over a range starting from a high concentration at or near the clinical Cmax and decreasing in half-log increments. If the clinical Cmax for an agent had not been determined, the highest concentration tested was 10 microM.
The patient-derived cancer (PDC) cell lines include five colon adenocarcinomas: 186277-243-T-J2-PDC, 616215-338-R-J1-PDC, 439559-082-T-J2-PDC, 463943-066-T-J2-PDC, and 519858-162-T-J1-PDC; three pancreatic carcinomas: 323965-272-R-J2-PDC, 521955-158-R6-J3-PDC, and 521955-158-R2-J5-PDC; two uterine sarcomas: 327498-152-R-J2-PDC and 993429-296-R-J1-PDC; two rhabdomyosarcomas: 755483-174-R-J1-PDC and 772245-204-R-J1-PDC; two soft tissue sarcomas: 126254-015-R-J1-PDC and 494315-158-R-J1-PDC; two malignant fibrous histiocytomas: 317291-083-R-J1-PDC and 596521-263-R-J1-PDC; two breast carcinomas: 171881-019-R-J1-PDC and 885512-296-R-J2-PDC; and one ovarian carcinoma: 6556581-035-R-J-PDC were obtained from the NCI PDMR, (https://pdmr.cancer.gov). The established cell lines HSSY-2 synovial sarcoma (RRID:CVCL 8719), SYO-1 synovial sarcoma (RRID:CVCL_7146), MPNST malignant peripheral neural sheath tumor were obtained from the Sloan Kettering Institute. The following established cell lines were purchased from the American Type Culture Collection (ATCC, Manassas, VA), Sor the received from the NCI repository:, PANC-1 pancreatic carcinoma (CRL-1469, RRID:CVCL_0480), OVCAR-5 ovarian carcinoma (RRID:CVCL_1628), OVCAR-8 ovarian carcinoma (RRID:CVCL_1629), , MCF-7 breast carcinoma (CRL-12584, RRID:CVCL_0031), MDA-MB-231 breast carcinoma (CRL-12532, RRID:CVCL_0062), NCI-H1876 small cell lung carcinoma (CRL-5902, RRID:CVCL_1503), NCI-H510A small cell lung carcinoma (HTB-184, RRID:CVCL_1565), NCI-H1417 (CRL-5869, RRID:CVCL_1469), and NCI-H196 small cell lung carcinoma (CRL-5823, RRID:CVCL_1509). Dr. Peter Houghton (Greehey Children's Cancer Research Institute, University of Texas Health Science Center, San Antonio, TX) provided Rh-18 rhabdomyosarcoma (RRID:CVCL_1659). Pooled donor human umbilical vein endothelial cells (HUVEC, Lonza, cat. CC-2519) and human mesenchymal stem cells (hMSC, Lonza, cat. PT-2501) were purchased from Lonza (Walkersville, MD).
Cell Culture. […]

[1] = second compound 0.03 µM, first compound 0.0316 µM
[2] = second compound 0.03 µM, first compound 0.1 µM
[3] = second compound 0.0949 µM, first compound 0.0316 µM
[4] = second compound 0.0949 µM, first compound 0.1 µM
[5] = second compound 0.3 µM, first compound 0.0316 µM
[6] = second compound 0.3 µM, first compound 0.1 µM
[7] = second compound 0.949 µM, first compound 0.0316 µM
[8] = second compound 0.949 µM, first compound 0.1 µM
[9] = second compound 3 µM, first compound 0.0316 µM
[10] = second compound 3 µM, first compound 0.1 µM
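Note: spheroids exposed to compound for 7 days after 3 days of growth.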
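Throughout, for viability, T/C: 100% = DMSO vehicle control wells.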

Cn1ncnc1[C@H]1c2n[nH]c(=O)c3cc(F)cc(c23)N[C@@H]1c1ccc(F)cc1 + CCN1C(C(=O)NC23CCC(C(=O)O)(CC2)CC3)C(c2cccc(Cl)c2F)C2(C(=O)Nc3cc(Cl)ccc32)C12CCCCC2
IC50 (second compound 0.03 µM): 6.09 nM | IC50 (second compound 0.0949 µM): 2.66 nM | IC50 (second compound 0.3 µM): < 0.316 nM | IC50 (second compound 0.949 µM): < 0.316 nM | IC50 (second compound 3 µM): < 0.316 nM | viability, T/C (second compound 0.03 µM, first compound 0.000316 µM): 99.9% | viability, T/C (second compound 0.03 µM, first compound 0.001 µM): 90% | viability, T/C (second compound 0.03 µM, first compound 0.00316 µM): 70.8% | viability, T/C (second compound 0.03 µM, first compound 0.01 µM): 34.8% | viability, T/C [1]: 12.6% | viability, T/C [2]: 6.28% | viability, T/C (second compound 0.0949 µM, first compound 0.000316 µM): 75.8% | viability, T/C (second compound 0.0949 µM, first compound 0.001 µM): 73.4% | viability, T/C (second compound 0.0949 µM, first compound 0.00316 µM): 45% | viability, T/C (second compound 0.0949 µM, first compound 0.01 µM): 17.4% | viability, T/C [3]: 7.19% | viability, T/C [4]: 4.65% | viability, T/C (second compound 0.3 µM, first compound 0.000316 µM): 45.2% | viability, T/C (second compound 0.3 µM, first compound 0.001 µM): 28.2% | viability, T/C (second compound 0.3 µM, first compound 0.00316 µM): 16% | viability, T/C (second compound 0.3 µM, first compound 0.01 µM): 6.36% | viability, T/C [5]: 3.88% | viability, T/C [6]: 3.44% | viability, T/C (second compound 0.949 µM, first compound 0.000316 µM): 5.73% | viability, T/C (second compound 0.949 µM, first compound 0.001 µM): 7.29% | viability, T/C (second compound 0.949 µM, first compound 0.00316 µM): 3.58% | viability, T/C (second compound 0.949 µM, first compound 0.01 µM): 1.98% | viability, T/C [7]: 2.28% | viability, T/C [8]: 1.93% | viability, T/C (second compound 3 µM, first compound 0.000316 µM): 3.13% | viability, T/C (second compound 3 µM, first compound 0.001 µM): 8.85% | viability, T/C (second compound 3 µM, first compound 0.00316 µM): 2.79% | viability, T/C (second compound 3 µM, first compound 0.01 µM): 2.59% | viability, T/C [9]: 1.49% | viability, T/C [10]: 2.35%

O=C(c1cc(Cc2n[nH]c(=O)c3ccccc23)ccc1F)N1CCN(C(=O)C2CC2)CC1 + CCN1C(C(=O)NC23CCC(C(=O)O)(CC2)CC3)C(c2cccc(Cl)c2F)C2(C(=O)Nc3cc(Cl)ccc32)C12CCCCC2
IC50 (second compound 0.03 µM): 1720 nM | IC50 (second compound 0.0949 µM): 592 nM | IC50 (second compound 0.3 µM): < 31.6 nM | IC50 (second compound 0.949 µM): < 31.6 nM | IC50 (second compound 3 µM): < 31.6 nM | viability, T/C [1]: 94.9% | viability, T/C [2]: 83.6% | viability, T/C (second compound 0.03 µM, first compound 0.316 µM): 80.9% | viability, T/C (second compound 0.03 µM, first compound 1 µM): 63.6% | viability, T/C (second compound 0.03 µM, first compound 3.16 µM): 35% | viability, T/C (second compound 0.03 µM, first compound 10 µM): 9.54% | viability, T/C [3]: 74.5% | viability, T/C [4]: 63% | viability, T/C (second compound 0.0949 µM, first compound 0.316 µM): 61% | viability, T/C (second compound 0.0949 µM, first compound 1 µM): 42.8% | viability, T/C (second compound 0.0949 µM, first compound 3.16 µM): 14.8% | viability, T/C (second compound 0.0949 µM, first compound 10 µM): 5.01% | viability, T/C [5]: 33.6% | viability, T/C [6]: 29.5% | viability, T/C (second compound 0.3 µM, first compound 0.316 µM): 20.9% | viability, T/C (second compound 0.3 µM, first compound 1 µM): 17.4% | viability, T/C (second compound 0.3 µM, first compound 3.16 µM): 5.47% | viability, T/C (second compound 0.3 µM, first compound 10 µM): 3.11% | viability, T/C [7]: 9.62% | viability, T/C [8]: 5.99% | viability, T/C (second compound 0.949 µM, first compound 0.316 µM): 4.91% | viability, T/C (second compound 0.949 µM, first compound 1 µM): 4.88% | viability, T/C (second compound 0.949 µM, first compound 3.16 µM): 3.33% | viability, T/C (second compound 0.949 µM, first compound 10 µM): 2.8% | viability, T/C [9]: 2.94% | viability, T/C [10]: 3.36% | viability, T/C (second compound 3 µM, first compound 0.316 µM): 2.53% | viability, T/C (second compound 3 µM, first compound 1 µM): 3.39% | viability, T/C (second compound 3 µM, first compound 3.16 µM): 2.26% | viability, T/C (second compound 3 µM, first compound 10 µM): 2.33%

From PubChem BioAssay AID1963424 (Molecular Pharmacology Branch, DTP, NCI, 2024)
